Experimental data as given in patent US20210128645A1, “INTESTINAL MICROBE HAVING D-PSICOSE-RESPONSIVE PROLIFERATION” (priority 2018, published 2021).

Tests used:
[1] = tested on: male C57BL/6J mice fed a high-fat diet; assay: High-fat diet mouse experiment with D-psicose drinking water: body weight gain and fasting blood glucose; type: in vivo
Description: Eight-week-old (week 0) male C57BL/6J mice (total 4 groups, n=7) were fed a high-fat diet and tap water (control) or D-psicose-containing water, or antibiotics in addition to these (Control+Abx, D-psicose+Abx). During the experimental period, the body weight of the mice, the water intake, and the food intake were measured weekly, and the feces were collected. The samples at weeks 0 and 5 were used for analysis. The fasting blood glucose level was measured at week 9. The mice were dissected after 11 weeks.
(§1) The average (g) of the body weight gain at week 5 (13 weeks old) from start of rearing (8 weeks old) is shown (n =7). The error bars represent standard deviations (SDs). Control (white): high-fat diet+tap water, D-psicose (black): high-fat diet +5.0% D-psicose, Abx−: without antibiotic treatment, Abx+: with antibiotic treatment. The antibiotics were 0.1% ampicillin sodium, 0.1% neomycin sulfate, and 0.05% vancomycin hydrochloride. The Student's t-test was used in significance testing. A p-value of 0.05 or less is considered significant and indicated by*in the figure.
as §1, with “15-hour fasting blood glucose level (mg/dl)” for “average (g) of the body weight gain”, “9 after” for “5 (13 weeks old) from”, “rearing” for “rearing (8 weeks old)”, “(n=7).” for “(n =7).”
(§2) Twenty eight 6-week-old male C57BL/6J mice (CLEA Japan, Inc.) were provided and fed a normal diet CE-2 (CLEA Japan, Inc.) and tap water for 2 weeks, followed by acclimation. The mice were divided into 4 groups (7 mice per group): (i) tap water-administered group, (ii) D-psicose water-administered group, (iii) tap water and antibiotic-administered group, and (iv) D-psicose water and antibiotic-administered group. The experiment was started at 8 weeks old. For food, the mice in all groups were freely fed a high-fat diet HFD32 (CLEA Japan, Inc.). […] During the experimental period, the body weight of the mice, the water intake, and the food intake were measured weekly, and the feces were collected. […] At week 9 (17 weeks old) from the start of the experiment, the fasting blood glucose level, an indicator of diabetes, was measured. After 15-hour fasting, the side of the tail was pricked with a syringe needle (Terumo Corporation), and the blood glucose level was measured by using a glucometer (Nipro StatStrip XP3). […]

[2] = tested on: genus Atopobium (intestinal microbe, SEQ ID NO:1 OTU); assay: 16S rRNA gene analysis of intestinal microbiota in fecal samples of D-psicose-administered mice; type: in vivo, mouse; conditions: 5.0% D-psicose water, high-fat diet, fecal samples at week 5, vs tap water control (FIG. 4)
Description: The relative abundance of the genus Atopobium in the fecal samples at week 5 from start of rearing is shown. The relative abundance is calculated as the percentage of the genus Atopobium in the total reads. Control (white): high-fat diet+tap water, D-psicose (black): high-fat diet +5.0% D-psicose. The Mann-Whitney U test was used in significance testing. A p-value of 0.001 or less is considered significant and indicated by P<0.001: in the figure.
as §2, with “old.” for “old. For food, the mice in all groups were freely fed a high-fat diet HFD32 (CLEA Japan, Inc.).”

`O=C(CO)[C@H](O)[C@H](O)[C@H](O)CO` [D-psicose] was tested, and the “body weight gain due to the intake of high-fat diet” value ([1]; 5.0% (w/v) D-psicose in drinking water, without antibiotic treatment, week 5, vs tap water control (FIG. 2)) was “significantly suppresses the body weight gain”, the “suppression of body weight gain” value ([1]; 5.0% D-psicose water plus antibiotics (0.1% ampicillin sodium, 0.1% neomycin sulfate, 0.05% vancomycin hydrochloride), intestinal microbes removed (FIG. 2)) was “not observed” and the “fasting blood glucose level, difference between groups” value ([1]; 5.0% D-psicose water plus antibiotics vs tap water plus antibiotics, 15-hour fasting, week 9 (FIG. 3)) was “no significant difference”. The “fasting blood glucose level” value ([1]; 5.0% D-psicose water, without antibiotics, 15-hour fasting, week 9, vs tap water control (FIG. 3)) was “significantly reduces the blood glucose level” and the “growth (relative abundance) of the intestinal microbe, genus Atopobium, in feces” value [2] was “significantly grows”.
